The assay addresses T1, hROMK (hKir1.1) (Homo sapiens, UniProt P48048).
T1 construct: expressed in transfected cells
T1 sequence (P48048 1-391): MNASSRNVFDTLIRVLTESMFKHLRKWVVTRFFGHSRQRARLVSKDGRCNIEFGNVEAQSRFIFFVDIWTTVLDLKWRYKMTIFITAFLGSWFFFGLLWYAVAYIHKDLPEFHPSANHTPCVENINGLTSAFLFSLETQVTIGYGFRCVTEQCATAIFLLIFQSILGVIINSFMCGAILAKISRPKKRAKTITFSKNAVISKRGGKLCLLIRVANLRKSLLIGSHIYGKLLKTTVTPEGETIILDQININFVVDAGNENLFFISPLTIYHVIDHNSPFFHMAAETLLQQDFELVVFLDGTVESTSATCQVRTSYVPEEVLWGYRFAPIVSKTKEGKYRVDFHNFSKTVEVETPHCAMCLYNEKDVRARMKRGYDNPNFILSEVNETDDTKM
Nature of the assay: Thallium Flux Assay. The class given is cell-based. As to the method: Cell Culture Conditions- HEK293 cells stably expressing hROMK (hKir1.1) were grown at 37°C in a 10%CO2 humidified incubator in complete growth media: Dulbecco's Modified Eagle Medium supplemented with non-essential amino acids, Penicillin/Streptomycin/Glutamine, G418 and FBS. At >80% confluency, aspirate the media from the flask and rinse with 10 mL Calcium/Magnesium-free PBS. […] To dislodge the cell, gently bang the side of the flask with your hand. Triturate the cells completely and then transfer the cells to 25 mL complete media. Centrifuge at 1,500 rpm for 6 min followed by resuspension in complete growth media and determine cell concentration. […] Under ideal growth conditions and appropriate tissue culture practices, this cell line is stable for 40-45 passages.
• FluxOR™ Reagent (Component A) • FluxOR™ Assay Buffer (Component B) - 10X Concentrate • PowerLoad™ Concentrate (Component C) - 100X Concentrate • Probenecid (Component D) - Lyophilized sample is kept at -20°C. Water soluble, 100X after solubilization in 1 mL water. […] Store at 4°C. • Thallium sulfate (Tl2SO4) Concentrate (Component G) - 50 mM in water. Store at 4°C • DMSO (dimethyl sulfoxide, Component H) - 1 mL (100%)
• 1000X FluxOR™ Reagent: Reconstitute a vial of component A in 100 µl DMSO; Mix well; Store 10 µl aliquots at -20°C • 1X FluxOR™ Assay Buffer: Dilute Component B 10-fold with water; Adjust pH to 7.4 with Hepes/NaOH; Filter and store at 4°C • Probenecid/Assay Buffer: 100 mL of 1X FluxOR™ Assay Buffer; 1 mL of reconstituted component D; Store at 4°C • Loading Buffer (per microplate): 10 µl 1000X FluxOR™ Reagent; 100 µl component C; 10 mL Probenecid/Assay Buffer • Compound Buffer (per microplate): 20 mL Probenecid/Assay Buffer; 0.3 mM ouabain (10 mM ouabain in water can be stored in amber bottle/aluminum foil at room temperature); Test compound • 1X FluxOR™Chloride-Free Buffer: Prepare 1X working solution in water. Can be stored at room temperature • Stimulant Buffer (prepared at 5X final concentration in 1X FluxOR™Chloride-Free Buffer): 7.5 mM Thallium sulfate and 0.75 mM Potassium sulfate (to give a final assay concentration of 3 mM Thallium/ 0.3 mM Potassium). Store at 4°C when not in use. If kept sterile, this solution is good for months.
Assay protocol- The ROMK channel functional thallium flux assay is performed in 384 wells, using the FLIPR-Tetra instrument. HEK-hKir1.1 cells are seeded in Poly-D-Lysine microplates and kept in a 37°C-10%CO2 incubator overnight. On the day of the experiment, the growth media is replaced with the FluxOR™ reagent loading buffer and incubated, protected from light, at ambient temperature (23-25°C) for 90 min. The loading buffer is replaced with assay buffer ± test compound followed by 30 min incubation at ambient temperature, where the Thallium/Potassium stimulant is added to the microplate.
• 1. Seed HEK-hKir1.1 cells (50 µl at 20,000 cells/well) in 384-well PDL coated Microplates • 2. Allow cells to adhere overnight in humidified 37°C/10%CO2 incubator • 3. Completely remove cell growth media from microplate and replace with 25 µl loading buffer • 4. Incubate Microplate at room temperature, protected form light, for 90 min • 5. Remove loading buffer and replace with 25 µl 1x Assay Buffer ± test compound. • 6. Incubate microplate at room temperature, protected form light, for 30 min • 7. […] Excitation = 400 nm, Emission = 460 & 580 nm. Collect data for ∼ 10 min.
Data Calculation- The fluorescence intensity of wells containing 3 µM of a standard control ROMK inhibitor of the present invention is used to define the ROMK-sensitive component of thallium flux. Fluorescence in the presence of test compounds is normalized to control values to provide % fluorescence change.

Where [1] appears, read: HEK293 cells stably expressing hROMK (hKir1.1), FLIPR-Tetra, read-out: Thallium Flux IC50.

pIC50: −log10 of the molar value. Read-outs that look alike come from different tables or passages of the source.

In the case of `N#Cc1c(F)ccc([C@H]2CN3CCN(C(=O)Cc4ccc(-n5cnnn5)cn4)C[C@H]3CO2)c1Cl` [Example 52, 2-chloro-6-fluoro-3-[(3S,9aS)-8-{[5-(1H-tetrazol-1-yl)pyridin-2-yl]acetyl}octahydropyrazino[2,1-c][1,4]oxazin-3-yl]benzonitrile], the pIC50 (Thallium Flux IC50) was 6.96.
Take `N#Cc1c(F)ccc([C@@H]2CN3CCN(C(=O)Cc4ccc(-n5cnnn5)cn4)C[C@H]3CO2)c1Cl` [Example 53]: under setting [1], the negative logarithm of the IC50 (pIC50) is 7.22.
Regarding `N#Cc1c(F)ccc([C@@H]2CN3CCN(C(=O)Cc4ccc(-n5cnnn5)cn4)C[C@H]3CO2)c1F` [Example 54, 2,6-difluoro-3-[(3R,9aS)-8-{[5-(1H-tetrazol-1-yl)pyridin-2-yl]acetyl}octahydropyrazino[2,1-c][1,4]oxazin-3-yl]benzonitrile], under setting [1], the negative logarithm of the IC50 (pIC50) is 7.00.
In turn, `O=C1OCCc2cc([C@H]3CN4CCN(C(=O)Cc5ccc(-n6cnnn6)nc5)C[C@@H]4CO3)ccc21` [Example 55, 6-[(3S,9aR)-8-{[6-(1H-tetrazol-1-yl)pyridin-3-yl]acetyl}octahydropyrazino[2,1-c][1,4]oxazin-3-yl]-3,4-dihydro-1H-isochromen-1-one] had a negative logarithm of the IC50 (pIC50) (Thallium Flux IC50) of 6.92.
With `COc1cc([C@H]2CN3CCN(C(=O)Cc4ccc(-n5cnnn5)nc4)C[C@H]3CO2)ccc1C#N` [Example 56, 2-methoxy-4-[(3S,9aS)-8-{[6-(1H-tetrazol-1-yl)pyridin-3-yl]acetyl}octahydropyrazino[2,1-c][1,4]oxazin-3-yl]benzonitrile], the negative-log IC50 (pIC50) under setting [1] was 6.92.
On to `COc1c([C@@H]2CN3CCN(C(=O)Cc4ccc(-n5cnnn5)nc4)C[C@H]3CO2)ccc(F)c1C#N` [Example 60, 6-fluoro-2-methoxy-3-[(3R,9aS)-8-{[6-(1H-tetrazol-1-vl)pvridin-3-yl]acetyl}octahydropyrazino[2,1-c][1,4]oxazin-3-yl]benzonitrile], for which the pIC50 under setting [1] is 6.85.
For `COc1c([C@@H]2CN3CCN(C(=O)Cc4ccc(-n5cnnn5)cn4)C[C@H]3CO2)ccc(F)c1C#N` [Example 62, 6-fluoro-2-methoxy-3-[(3R,9aS)-8-{[5-(1H-tetrazol-1-vl)pvridin-2-yl]acetyl}octahydropyrazino[2,1-c][1,4]oxazin-3-yl]benzonitrile], the pIC50 under setting [1] was 6.34.
For the molecule `COc1c([C@H]2CN3CCN(C(=O)Cc4ccc(-n5cnnn5)cn4)C[C@H]3CO2)ccc(F)c1C#N` [Example 63, 6-fluoro-2-methoxy-3-[(3S,9aS)-8-{[5-(1H-tetrazol-1-vl)pvridin-2-yl]acetyl}octahydropyrazino[2,1-c][1,4]oxazin-3-yl]benzonitrile], under setting [1], the negative logarithm of the IC50 (pIC50) was 6.74.
In the case of `Cc1c([C@H]2CN3CCN(C(=O)Cc4ccc(-n5cnnn5)nc4)C[C@H]3CO2)ccc(Cl)c1C#N` [Example 64, 6-chloro-2-methyl-3-[(3S,9aS)-8-{[6-(1H-tetrazol-1-yl)pyridin-3-yl]acetyl}octahydropyrazino[2,1-c][1,4]oxazin-3-yl]benzonitrile], under setting [1], the negative-log IC50 (pIC50) is 6.17.
As for `Cc1c([C@@H]2CN3CCN(C(=O)Cc4ccc(-n5cnnn5)nc4)C[C@H]3CO2)ccc(Cl)c1C#N` [Example 65], the negative-log IC50 (pIC50) under setting [1] was 6.82.
With `N#Cc1ccc([C@@H]2CN3CCN(C(=O)Cc4ccc(-n5cnnn5)nc4)C[C@H]3CO2)cc1F` [Example 66, 2-fluoro-4-[(3R,9aS)-8-{[6-(1H-tetrazol-1-yl)pyridin-3-yl]acetyl}octahydropyrazino[2,1-c][1,4]oxazin-3-yl]benzonitrile], the pIC50 under setting [1] is 6.43.
Regarding `N#Cc1ccc([C@H]2CN3CCN(C(=O)Cc4ccc(-n5cnnn5)nc4)C[C@H]3CO2)cc1F` [Example 67, 2-fluoro-4-[(3S,9aS)-8-{[6-(1H-tetrazol-1-yl)pyridin-3-yl]acetyl}octahydropyrazino[2,1-c][1,4]oxazin-3-yl]benzonitrile], the pIC50 under setting [1] was 7.15.
The same measure, in the same setting: as for `Cc1c([C@@H]2CN3CCN(C(=O)Cc4ccc(-n5cnnn5)nc4)C[C@H]3CO2)csc1C#N` [Example 68, 3-methyl-4-[(3R,9aS)-8-{[6-(1H-tetrazol-1-yl)pyridin-3-yl]acetyl}octahydropyrazino[2,1-c][1,4]oxazin-3-yl]thiophene-2-carbonitrile], the figure is 7.40.
In the case of `Cc1c([C@H]2CN3CCN(C(=O)Cc4ccc(-n5cnnn5)nc4)C[C@H]3CO2)csc1C#N` [Example 69, 3-methyl-4-[(3S,9aS)-8-{[6-(1H-tetrazol-1-yl)pyridin-3-yl]acetyl}octahydropyrazino[2,1-c][1,4]oxazin-3-yl]thiophene-2-carbonitrile], under setting [1], the pIC50 is 6.96.
In turn, `Cc1c([C@@H]2CN3CCN(C(=O)Cc4ccc(-n5cnnn5)cn4)C[C@H]3CO2)csc1C#N` [Example 70, 3-methyl-4-[(3R,9aS)-8-{[5-(1H-tetrazol-1-yl)pyridin-2-yl]acetyl}octahydropyrazino[2,1-c][1,4]oxazin-3-yl]thiophene-2-carbonitrile] had a pIC50 (Thallium Flux IC50) of 6.57.
With `Cc1c([C@H]2CN3CCN(C(=O)Cc4ccc(-n5cnnn5)cn4)C[C@H]3CO2)csc1C#N` [Example 71, 3-methyl-4-[(3S,9aS)-8-{[5-(1H-tetrazol-1-yl)pyridin-2-yl]acetyl}octahydropyrazino[2,1-c][1,4]oxazin-3-yl]thiophene-2-carbonitrile], under setting [1], the negative logarithm of the IC50 (pIC50) was 6.41.
Regarding `Cc1cc2c(cc1[C@@H]1CN3CCN(C(=O)Cc4ccc(-n5cnnn5)nc4)C[C@H]3CO1)COC2=O` [Example 72, 6-methyl-5-[(3R,9aS)-8-{[6-(1H-tetrazol-1-yl)pyridin-3-yl]acetyl}octahydropyrazino[2,1-c][1,4]oxazin-3-yl]-2-benzofuran-1(3H)-one], the negative-log IC50 (pIC50) under setting [1] was 6.12.
Take `Cc1cc2c(cc1[C@H]1CN3CCN(C(=O)Cc4ccc(-n5cnnn5)nc4)C[C@H]3CO1)COC2=O` [Example 73, 6-methyl-5-[(3S,9aS)-8-{[6-(1H-tetrazol-1-yl)pyridin-3-yl]acetyl}octahydropyrazino[2,1-c][1,4]oxazin-3-yl]-2-benzofuran-1(3H)-one]: the negative-log IC50 (pIC50) under setting [1] was 6.64.
For the molecule `Cc1c(C#N)cncc1[C@@H]1CN2CCN(C(=O)Cc3ccc(-n4cnnn4)nc3)C[C@H]2CO1` [Example 74, 4-methyl-5-[(3R,9aS)-8-{[6-(1H-tetrazol-1-yl)pyridin-3-yl]acetyl}octahydropyrazino[2,1-c][1,4]oxazin-3-yl]pyridine-3-carbonitrile], the pIC50 under setting [1] was 6.41.
In turn, `Cc1c([C@@H]2CN3CCN(C(=O)Cc4cnc(-n5cnnn5)cn4)C[C@H]3CO2)ccc(F)c1C#N` [Example 75, 6-fluoro-2-methyl-3-[(3R,9aS)-8-{[5-(1H-tetrazol-1-yl)pyrazin-2-yl]acetyl}octahydropyrazino[2,1-c][1,4]oxazin-3-yl]benzonitrile] showed a negative logarithm of the IC50 (pIC50) (Thallium Flux IC50) of 6.89.

The record behind these values is patent EP2790511B1 (Merck Sharp & Dohme Corp., priority 2011, dated 2013).
